Data: patent publication US8889591B2, “Herbicidal compositions comprising 4-amino-3-chloro-5-fluoro-6-(4-chloro-2-fluoro-3-methoxyphenyl)pyridine-2-carboxylic acid or a derivative thereof and bromobutide, daimuron, oxaziclomefone or pyributicarb” (Dow Agrosciences LLC, priority 2012, dated 2014)

Test system: IPOHE
Assay: Postemergence foliar-applied greenhouse weed control, direct-seeded rice system
Type: in vivo, Ipomoea hederacea Jacq.
From the text: Seeds or nutlets of the desired test plant species were planted in a soil matrix prepared by mixing a loam or sandy loam soil (e.g., 28.6 percent silt, 18.8 percent clay, and 52.6 percent sand, with a pH of about 5.8 and an organic matter content of about 1.8 percent) and calcareous grit in an 80 to 20 ratio. The soil matrix was contained in plastic pots with a volume of 1 quart and a surface area of 83.6 square centimeters (cm^2). When required to ensure good germination and healthy plants, a fungicide treatment and/or other chemical or physical treatment was applied. The plants were grown for 8-22 days in a greenhouse with an approximate 14 h photoperiod which was maintained at about 29° C. during the day and 26° C. during the night. Nutrients (Peters Excel® 15-5-15 5-Ca 2-Mg and iron chelate) were applied in the irrigation solution as needed and water was added on a regular basis. Supplemental lighting was provided with overhead metal halide 1000-Watt lamps as necessary. The plants were employed for testing when they reached the first through fourth true leaf stage.
Treatments consisted of the acid or esters of 4-amino-3-chloro-5-fluoro-6-(4-chloro-2-fluoro-3-methoxy-phenyl)pyridine-2-carboxylic acid (Compound A), each formulated as an SC (suspension concentrate), and various herbicidal components alone and in combination. Forms of compound A were applied on an acid equivalent basis.
Other herbicidal components were applied on an active ingredient basis and included diamuron formulated as an EC (emulsifiable concentrate) and oxaziclomefone (technical grade material).
Treatment requirements were calculated based upon the rates being tested, the concentration of active ingredient or acid equivalent in the formulation, and a 12 mL application volume at a rate of 187 L/ha.
For treatments comprised of formulated compounds, measured amounts of compounds were placed individually in 25 mL glass vials and diluted in a volume of 1.25% (v/v) Agri-Dex® crop oil concentrated to obtain 12× stock solutions. […] Application solutions were prepared by adding an appropriate amount of each stock solution (e.g., 1 mL) and diluted to the appropriate final concentrations with the addition of 10 mL of an aqueous mixture of 1.25% (v/v) crop oil concentrate so that the final spray solutions contained 1.25+/−0.05% (v/v) crop oil concentrate.
For treatments comprised of technical compounds, weighed amounts can be placed individually in 25 mL glass vials and dissolved in a volume of 97:3 v/v acetone/DMSO to obtain 12× stock solutions. […] Application solutions can be prepared by adding an appropriate amount of each stock solution (e.g., 1 mL) and diluted to the appropriate final concentrations with the addition of 10 mL of an aqueous mixture of 1.5% (v/v) crop oil concentrate so that the final spray solutions contain 1.25% (v/v) crop oil concentrate. When technical materials are used, the concentrated stock solutions can be added to the spray solutions so that the final acetone and DMSO concentrations of the application solutions are 16.2% and 0.5%, respectively.
For treatments comprised of formulated and technical compounds, weighed amounts of the technical materials were placed individually in 25 mL glass vials and dissolved in a volume of 97:3 v/v acetone/DMSO to obtain 12× stock solutions, and measured amounts of the formulated compounds were placed individually in 25 mL glass vials and diluted in a volume of 1.5% (v/v) crop oil concentrate or water to obtain 12× stock solutions. […] Application solutions were prepared by adding an appropriate amount of each stock solution (e.g., 1 mL) and diluted to the appropriate final concentrations with the addition of an appropriate amount of an aqueous mixture of 1.5% (v/v) crop oil concentrate so that the final spray solutions contained 1.25% (v/v) crop oil concentrate. […]

## COc1c(Cl)ccc(-c2nc(C(=O)OCc3ccccc3)c(Cl)c(N)c2F)c1F [Compound A Benzyl Ester]
Compound A Benzyl Ester 4.38 gae/ha alone
  Visual Weed Control (%) - 20 DAA IPOHE Obs: 10%
Compound A Benzyl Ester 8.75 gae/ha alone
  Visual Weed Control (%) - 20 DAA IPOHE Obs: 25%
Compound A Benzyl Ester 17.5 gae/ha alone
  Visual Weed Control (%) - 20 DAA IPOHE Obs: 50%
